In publication PMC3514016 (The international journal of biochemistry & cell biology, 2009):
Where a SMILES comes first, the peptide text is derived from it. The star is where a group is joined. AMC = Cc1cc(=O)oc2cc(N*)ccc12; Cbz = O=C(OCc1ccccc1)*

Target: Human CatB (human wild-type cathepsin B) (Homo sapiens, UniProt P07858, S194A)
Settings: read-out: Human CatB / Km; 37 °C; pH not stated for the Km assay

Row | Compound | Km [µM]
1 | Cc1cc(=O)oc2cc(NC(=O)[C@H](CCCNC(=N)N)NC(=O)[C@H](CCCNC(=N)N)NC(=O)OCc3ccccc3)ccc12 [Z-Arg-Arg-AMC] (Cbz-Arg-Arg-{AMC}) | 100
2 | Cc1cc(=O)oc2cc(NC(=O)[C@H](CCCNC(=N)N)NC(=O)[C@H](Cc3ccccc3)NC(=O)OCc3ccccc3)ccc12 [Z-Phe-Arg-AMC] (Cbz-Phe-Arg-{AMC}) | 47
